Entries after “also recorded” stand apart in the source; their conditions may differ.
Legend:
[1] = tested on: transendothelial migration of human neutrophils through HUVEC monolayers; experiment: Transendothelial migration (TEM) of neutrophils; format: cell-based; settings: for % Inhibition of TEM: peptides 0.01 mM, native FHA 1 μM, at least 3 experiments with 6 wells/peptide
Source text: FIG. 26 is a graphical representation of the inhibition of transendothelial migration of neutrophils by FHA peptide Ca, native FHA and mAb IB4 in a concentration dependent fashion. FHA peptide Ca (.largecircle.); intact FHA (.quadrature.); and mAb IB4 (.tangle-solidup.). Values represent mean±standard deviation of at least 3 experiments with 6 wells/peptide.
Transendothelial migration of neutrophils was studied based on a method described by Muller et al. (1992), J. Exp. Med. 176: 819-828. Briefly, human neutrophils suspended in ice-cold Hanks balanced salt solution (HBSS) containing Ca^++ and Mg^++ (Sigma) were fluoresceinated by adding 3.3 μl/ml 5-(and 6-)carboxyfluorescein diacetate, succinimidyl ester (CFSE, Molecular Probes Inc., Oreg.). After incubation for 30 mins. on ice, neutrophils were washed twice in cold HBSS with Ca^++ and Mg^++ and resuspended in cold Medium 199 (M199, Sigma) to a final concentration of 10^6 /ml. Human umbilical vein endothelial cells were subcultured at confluence into 96-well tissue culture plates (Becton Dickinson Labware, Lincoln Park, N.J.) that were coated with hydrated collagen gel (Vitrogen; Collagen Corporation, Palo Alto, Calif.) and fibronectin. Endothelial cells were stimulated with 10 ng/ml TNF-alpha for 4 hours and washed three times with warm M199. Neutrophils (10^6 /ml) were preincubated with 0.01 mM of peptides or with 1 μM of native FHA in M199 for 5 mins. on ice before they were added in 100 μl aliquots to the endothelial cells. For positive control, neutrophils were pre-incubated with 25 μg/ml anti-CD18 mAb IB4. For negative control, neutrophils were treated with 25 μg/ml mAb W6/32 against HLA class I antigen (Dako, Carpinteria, Calif.). The cells were incubated for 1 hour at 37° C., 5% CO2. To terminate transmigration, the supernatant fluid was aspirated and the wells were filled with warm 1 mM EGTA (Sigma) in HBSS without Ca and Mg. The plates were covered with plate sealers (Dynatech, Alexandria, Va.) and centrifuged in an inverted position at 250 g for 3 mins. at room temperature. To remove residual non-transmigrated neutrophils from the endothelial cells, monolayers were washed twice with 200 μl of warm Hanks solution without Ca and Mg. Fluorescence was quantitated using a fluorescence counter (Millipore Cytofluorm™ 2300). The percentage of transmigrated neutrophils was determined by comparing the amount of fluorescence of test wells with that measured in collagen- and fibronectin-coated wells without endothelial cells. […] Percent inhibition of transendothelial migration of neutrophils was calculated by comparing the number of transmigrated cells in wells containing neutrophils treated with peptide to neutrophils treated with M199 alone and arbitrarily set at 100% transendothelial migration (TEM).
The procedures for determining the neutrophil adherence to cultured endothelial cells and the transendothelial migration of neutrophils were identical with those of Example 9. Control values were the same as those shown in Example 9.

[2] = tested on: leukocyte migration into the CSF, pneumococcal meningitis; experiment: Rabbit model for meningitis: leukocyte migration into CSF; format: in vivo, New Zealand white rabbits; settings: for mean leukocyte concentration/μl CSF / mean leukocyte density, cells/μl CSF: 7 hours after challenge; for leukocyte migration into the CSF (in words): 0.1 μM (10^-1 μM) i.v.; for leukocyte migration into CSF (in words): 10^-3 μM; for reduction of CSF leukocytosis: intravenous injection; for mean leukocyte density, cells/μl CSF: 1 ml of 1 μM peptide i.v.
Source text: FIG. 20A and B, is a graphical representation of the anti-inflammatory activity of FHA, and FHA- and factor X-derived peptides in experimental bacterial meningitis. FIG. 20 A: FHA .largecircle.; Control .quadrature.. FIG. 20B: FHA peptide Ia .largecircle.; FHA peptide II .box-solid.; Factor X peptide II .tangle-solidup.; scrambled FHA peptide II .circle-solid..
FIG. 21 is a graphical representation of the effect of concentration of peptide on inhibition of leukocyte migration into the CSF. FHA peptide Ia .largecircle., FHA peptide II .box-solid.; Factor X peptide II .tangle-solidup.(n≥4 per group). Two animals received intravenous injections of 10^-1 μM, 2×10^-2 μM or 2×10^-3 μM FHA (.circle-solid.). Values are means±standarddeviations of leukocyte densities at 7 hours after bacterial challenge. The horizontal lines indicate the mean and standard deviation of CSF leukocyte density in 10 control animals which received phosphate buffered saline.
FIG. 22 is a scattergram representation of the effect of variation of the FHA peptide II structure on efficacy of inhibition,of meningeal inflammation. Values are leukocyte densities at 7 hours for individual rabbits. The horizontal lines indicate the mean and standard deviation of CSF leukocyte density in 10 control animals which received phosphate buffered saline.
FIG. 23 is a scattergram representation of the ability of acetyl/amide FHA peptide II to inhibit accumulation of leukocytes in the CSF. Two groups of 10 animals were challenged with pneumococci. One hour later, the animals received an intravenous injection of 10 nmoles of the acetyl/amide peptide (8.2 μg) or phosphate buffered saline. Leukocyte density in CSF was determined 6 hours after pneumococcal challenge.
FIG. 28 is a graphical representation of the effect of FHA peptides on pneumococci induced leukocyte migration into the CSF during pneumococcal meningitis. Data represent mean±standard deviation of leukocyte concentration/μl CSF of at least 4 animals per group. Time is hours after pneumococcal challenge. FHA peptide Ca (.quadrature.); FHA peptide Cb (.largecircle.); FHA peptide Cd (.tangle-solidup.); Control (.diamond-solid.);
FIG. 29 is a graphical representation of a comparison of anti-inflammatory activity of FHA and FHA peptides in experimental meningitis. FHA peptide Ca (.quadrature.); FHA peptide Cb (.largecircle.), ≥ four animals/group; FHA (.tangle-solidup.), two animals/group. Values are means ±standard deviations of leukocyte concentrations/μl CSF at 7 hours after bacterial challenge. The horizontal lines indicate the mean±standard deviation of leukocyte concentrations in 10 control animals which received phosphate buffered saline.
The rabbit model was performed according to an established protocol. Specific pathogen free, New Zealand white rabbits (2 kg; Hare Marland, Nutley, N.J.) were anesthetized with valium (2.5 mg/kg, subcutaneously, Hoffman-LaRoche, Nutley, N.J.), ketamine (35 mg/kg, intra-muscularly, Aveco, Fort Dodge, Iowa) and xylazine (5 mg/kg, intramuscularly, Miles Laboratories, Shawnee, Kans.) and a helmet of dental acrylic was affixed to the calvarium. Twenty four hours later, the rabbits were anesthetized with ethyl carbamate (1.75 g/kg; Aldrich Chemical Co., Milwaukee, Wis.) and pentobarbital (15 mg/kg; Abbott Laboratories, Abbott Park, Ill.) and placed in a stereotaxic frame. A spinal needle was introduced into the cisterna magna and 300 μl of CSF was withdrawn. The animals were challenged intracisternally with 10^8 heat killed, unencapsulated pneumococcus strain R6 introduced in 200 μl of saline (time 0). One hour later, animals were treated with peptides dissolved in 1 ml of saline by intravenous injection into the right marginal ear vein. The concentration of FHA was 0.1 μM and that of the FHA Ia, Factor X II, and scrambled FHA II peptides was 10 μM. For the acetyl-FHA II, acetyl/amide-FHA II, dimer of FHA II and trimer of FHA II peptides, the concentration was 10^-3 μM. […]

Substance | % Inhibition of TEM [1] | mean leukocyte concentration/μl CSF ([2]; peptides 10 μM i.v.) | reduction of CSF leukocytosis [2] | also measured
DEETVK [scrambled FHA II, reference compound] | 4 ± 5% | 6431±1380 /μl CSF |  | CSF leukocytosis (in words) ([2]; peptides 10 μM): ineffective
native FHA: Filamentous hemagglutinin, 220kD surface associated protein of Bordetella pertussis (List Biologicals) | 82±1% |  | > 60% | % Inhibition of TEM ([1]; listed as FHA): 82 ± 1%; % Inhibition of TEM ([1]; listed as Intact FHA): 82±1%; leukocyte migration into the CSF (in words) ([2]; listed as FHA): statistically significantly different from control at p<0.05; also recorded: more potent anti-inflammatory activity than the corresponding Factor X peptide II; leukocyte migration into CSF (in words) [2]: ineffective; mean leukocyte concentration/μl CSF ([2]; FHA 25 μg, 0.1 μM i.v.): 2096±450 /μl CSF
GYDTKQEDG [Factor X II] | 14 ± 9% | 1622±521 /μl CSF | > 60% | 
Ac-ETKEVDG-NH2 [Acetyl/Amide-FHA II] |  |  |  | leukocyte migration into the CSF ([2]; 10 nmoles i.v., 6 hours post-pneumococcal challenge, n=10): 3011±684 cells/μl
AADPHQGVLAQGDIIMDAKG [FHA Cc] | 11 ± 11% |  |  | 
ETKEVDG [FHA II] | 21 ± 10% | 2645 ±1412 /μl CSF | > 60% | leukocyte migration into the CSF (in words) ([2]; listed as FHA peptide II): statistically significantly different from control at p<0.02; also recorded: more potent anti-inflammatory activity than the corresponding Factor X peptide II; leukocyte migration into CSF (in words) [2]: ineffective
RADPHQGVLAQGDIIMDAKG [FHA Cb] | 8 ± 9% |  |  | leukocyte migration into the CSF (in words) [2]: ineffective at this dose; mean leukocyte density, cells/μl CSF [2]: 2788±1022 cells/μl CSF
LGYQAK (UniProt P12255 1979-1984, looked up, fragment) [FHA Ia] | 23 ± 5% | 1640±1210 /μl CSF | > 60% | 
GTLLLRNDALTENGTVTISA [FHA Cd] | 6 ± 6% |  |  | leukocyte recruitment into the CSF (in words) ([2]; 1 μM peptide): no effect on the leukocyte recruitment into the CSF
RGDPHQGVLAQGDIIMDAKG [FHA Ca] | 83 ± 8% |  |  | concentration required for inhibition of TEM similar to native FHA (82±1% at 1 μM) [1]: 10 µM; % Inhibition of TEM ([1]; listed as FHA peptide Ca): 83±8%; leukocyte migration into the CSF (in words) [2]: still significantly reduced leukocyte migration into the CSF; mean leukocyte density, cells/μl CSF [2]: 2137±1498 cells/μl CSF
